Assay results: ChEMBL document CHEMBL4359837, “Discovery of 2-(4-Chloro-3-(trifluoromethyl)phenyl)-N-(4-((6,7-dimethoxyquinolin-4-yl)oxy)phenyl)acetamide (CHMFL-KIT-64) as a Novel Orally Available Potent Inhibitor against Broad-Spectrum Mutants of c-KIT Kinase for Gastrointestinal Stromal Tumors” (J Med Chem, 2019)
One block for each compound: values may come before it. The source made the active and inactive calls. The calls are words filed in the database; no cut-off is given here.

How the values were obtained:
[1] = Antitumor activity against mouse BAF3(transformed) cells harboring c-KIT D820G mutant implanted in BALB/c nu mouse assessed as tumor growth inhibition at 80 mg/kg/day, po administered via gavage for 9 days relative to control; type: functional; conditions: 216 h, read-out: TGI
[2] = system: GISTT1; type: functional, cell-based; conditions: Homo sapiens
[3] = target: T1, Mast/stem cell growth factor receptor Kit (Homo sapiens, UniProt P10721, 560-578DEL/T670I); type: cell-based, GISTT1
T1 sequence (P10721 whole entry, looked up, stated change not applied): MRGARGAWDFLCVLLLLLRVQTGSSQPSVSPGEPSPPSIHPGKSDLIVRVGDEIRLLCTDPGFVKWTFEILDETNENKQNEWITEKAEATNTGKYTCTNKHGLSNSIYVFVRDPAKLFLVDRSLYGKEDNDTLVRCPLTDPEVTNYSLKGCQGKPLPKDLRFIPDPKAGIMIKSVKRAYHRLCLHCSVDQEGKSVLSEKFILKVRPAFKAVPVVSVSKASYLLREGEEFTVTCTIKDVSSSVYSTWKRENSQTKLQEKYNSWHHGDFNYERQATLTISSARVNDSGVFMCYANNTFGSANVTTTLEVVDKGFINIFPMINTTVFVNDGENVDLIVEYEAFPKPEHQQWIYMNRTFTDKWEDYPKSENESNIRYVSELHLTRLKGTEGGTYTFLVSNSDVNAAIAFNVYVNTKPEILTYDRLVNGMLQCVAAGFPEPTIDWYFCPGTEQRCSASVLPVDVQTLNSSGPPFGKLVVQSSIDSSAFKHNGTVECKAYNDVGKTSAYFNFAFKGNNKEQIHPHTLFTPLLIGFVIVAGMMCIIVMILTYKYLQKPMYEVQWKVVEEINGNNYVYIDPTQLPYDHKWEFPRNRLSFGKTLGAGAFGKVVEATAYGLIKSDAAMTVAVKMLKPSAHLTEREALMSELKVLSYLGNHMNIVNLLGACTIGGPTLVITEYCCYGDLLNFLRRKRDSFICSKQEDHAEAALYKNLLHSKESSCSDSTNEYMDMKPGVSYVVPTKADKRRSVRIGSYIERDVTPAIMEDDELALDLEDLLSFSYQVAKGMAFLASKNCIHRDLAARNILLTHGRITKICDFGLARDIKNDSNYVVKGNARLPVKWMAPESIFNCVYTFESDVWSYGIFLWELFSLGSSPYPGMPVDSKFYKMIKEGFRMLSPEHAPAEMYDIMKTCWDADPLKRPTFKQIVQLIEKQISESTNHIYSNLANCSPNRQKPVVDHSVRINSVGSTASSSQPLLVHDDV

[4] = system: Mus musculus; type: functional, organism-based; conditions: BALB/c, 80 mg/kg, TDE = time-dependent effect
[5] = Oral bioavailability in Beagle dog at 5 mg/kg by LC-MS/MS analysis; type: ADME, organism-based, Canis lupus familiaris; conditions: in vivo
[6] = Cmax in Beagle dog at 5 mg/kg, po by LC-MS/MS analysis; type: ADME, organism-based, Canis lupus familiaris; design: dose 5 mg/kg, route oral; conditions: in vivo
[7] = target: Platelet-derived growth factor receptor beta (Homo sapiens, UniProt P09619); assay: Binding affinity to wild-type human partial length PDGFRB (V582 to Y1009 residues) expressed in bacterial expression system assessed as residual binding level at 1 uM by Kinomescan method relative to control
Chain of Platelet-derived growth factor receptor beta (P09619 whole entry, the tested form may be a part): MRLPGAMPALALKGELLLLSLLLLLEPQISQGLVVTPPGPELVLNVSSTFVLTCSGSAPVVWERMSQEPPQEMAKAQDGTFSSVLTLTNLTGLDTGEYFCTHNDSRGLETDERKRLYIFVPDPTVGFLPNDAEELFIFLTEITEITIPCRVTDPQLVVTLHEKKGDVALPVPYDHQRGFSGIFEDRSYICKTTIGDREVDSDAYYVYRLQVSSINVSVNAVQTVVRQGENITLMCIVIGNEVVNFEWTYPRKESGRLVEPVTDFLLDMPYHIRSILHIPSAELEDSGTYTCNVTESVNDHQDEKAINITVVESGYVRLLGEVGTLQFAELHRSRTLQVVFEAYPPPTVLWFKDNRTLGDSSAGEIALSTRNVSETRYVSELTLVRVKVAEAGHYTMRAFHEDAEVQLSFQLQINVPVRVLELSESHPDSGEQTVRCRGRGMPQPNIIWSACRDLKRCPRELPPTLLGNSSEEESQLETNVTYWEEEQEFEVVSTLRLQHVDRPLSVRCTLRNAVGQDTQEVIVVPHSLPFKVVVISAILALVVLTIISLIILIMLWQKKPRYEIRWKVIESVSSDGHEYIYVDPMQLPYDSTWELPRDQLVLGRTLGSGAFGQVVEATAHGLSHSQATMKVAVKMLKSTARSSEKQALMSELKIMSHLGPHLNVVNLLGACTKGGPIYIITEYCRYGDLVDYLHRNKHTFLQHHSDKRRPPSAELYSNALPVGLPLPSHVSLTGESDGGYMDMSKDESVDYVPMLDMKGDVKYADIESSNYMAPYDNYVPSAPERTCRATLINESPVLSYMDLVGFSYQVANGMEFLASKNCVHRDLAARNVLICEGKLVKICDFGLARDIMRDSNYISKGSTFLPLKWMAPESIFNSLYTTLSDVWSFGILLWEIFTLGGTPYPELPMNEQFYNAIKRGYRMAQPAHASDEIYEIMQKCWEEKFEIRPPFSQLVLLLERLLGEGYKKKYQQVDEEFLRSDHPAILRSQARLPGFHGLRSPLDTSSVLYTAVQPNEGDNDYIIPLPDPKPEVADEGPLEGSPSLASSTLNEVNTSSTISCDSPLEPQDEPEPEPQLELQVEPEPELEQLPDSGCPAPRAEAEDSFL

[8] = target: T2, Mast/stem cell growth factor receptor Kit (Homo sapiens, UniProt P10721, 560-578DEL); type: cell-based, GISTT1
T2 sequence (P10721 whole entry, looked up, stated change not applied, the tested form may be a part): as the sequence (P10721 whole entry, looked up, stated change not applied) above

[9] = target: Vascular endothelial growth factor receptor 3 (Homo sapiens) (UniProt P35916); assay: Binding affinity to wild-type human partial length FLT4 (E821 to E1196 residues) expressed in bacterial expression system assessed as residual binding level at 1 uM by Kinomescan method relative to control
[10] = system: Mus musculus; assay: Antitumor activity against mouse BAF3(transformed) cells harboring c-KIT Y823D mutant implanted in BALB/c nu mouse assessed as tumor growth inhibition administered via oral gavage for 9 days; type: functional
[11] = AUC (0 to t) in mouse at 10 mg/kg, po by LC-MS/MS analysis; type: ADME, organism-based; conditions: in vivo
[12] = system: GISTT1; type: functional
[13] = system: Homo sapiens; type: functional; conditions: 20 mg/kg
[14] = system: Mus musculus; type: functional, organism-based; conditions: BALB/c, 80 mg/kg, TDE = time-dependent effect; remark: listed apart in the source
[15] = target: T1, Mast/stem cell growth factor receptor Kit; type: cell-based, GISTT1; remark: listed apart in the source
[16] = species on record: Homo sapiens; type: functional, cell-based
[17] = target: Epithelial discoidin domain-containing receptor 1 (Mus musculus) (UniProt Q03146); assay: Inhibition of DDR1 in mouse BAF3(transformed) cells assessed as growth inhibition after 72 hrs by CCK8 assay
[18] = target: Platelet-derived growth factor receptor alpha (Homo sapiens, UniProt P16234); type: cell-based; conditions: GISTT1
Chain of Platelet-derived growth factor receptor alpha (P16234 whole entry): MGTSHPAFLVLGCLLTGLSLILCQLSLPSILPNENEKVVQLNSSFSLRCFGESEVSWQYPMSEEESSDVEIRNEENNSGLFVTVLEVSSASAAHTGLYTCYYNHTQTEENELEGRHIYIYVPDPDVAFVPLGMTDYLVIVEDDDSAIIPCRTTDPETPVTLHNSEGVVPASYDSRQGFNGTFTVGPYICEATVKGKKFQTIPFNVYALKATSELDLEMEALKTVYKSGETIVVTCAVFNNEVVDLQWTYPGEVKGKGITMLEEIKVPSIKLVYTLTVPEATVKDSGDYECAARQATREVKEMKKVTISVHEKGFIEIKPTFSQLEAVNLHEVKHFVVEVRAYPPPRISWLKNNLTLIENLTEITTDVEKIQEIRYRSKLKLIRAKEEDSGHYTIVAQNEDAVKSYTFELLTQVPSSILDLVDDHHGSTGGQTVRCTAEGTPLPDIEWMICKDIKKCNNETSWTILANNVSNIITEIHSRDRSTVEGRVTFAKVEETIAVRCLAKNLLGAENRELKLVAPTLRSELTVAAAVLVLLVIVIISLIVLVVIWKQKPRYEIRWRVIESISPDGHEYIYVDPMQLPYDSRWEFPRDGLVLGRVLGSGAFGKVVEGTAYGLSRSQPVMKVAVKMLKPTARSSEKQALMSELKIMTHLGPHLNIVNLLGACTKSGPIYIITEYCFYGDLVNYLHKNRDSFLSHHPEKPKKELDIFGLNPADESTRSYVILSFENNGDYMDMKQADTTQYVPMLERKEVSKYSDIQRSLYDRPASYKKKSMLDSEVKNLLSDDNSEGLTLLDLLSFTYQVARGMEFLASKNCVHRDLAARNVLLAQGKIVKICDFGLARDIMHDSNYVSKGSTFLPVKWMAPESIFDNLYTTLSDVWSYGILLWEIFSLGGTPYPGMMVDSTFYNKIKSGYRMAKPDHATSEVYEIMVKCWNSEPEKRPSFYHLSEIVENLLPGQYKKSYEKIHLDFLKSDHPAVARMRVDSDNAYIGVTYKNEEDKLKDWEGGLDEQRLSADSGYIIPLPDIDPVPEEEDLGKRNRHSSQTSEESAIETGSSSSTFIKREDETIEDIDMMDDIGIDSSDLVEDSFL

[19] = Tmax in mouse at 1 mg/kg, iv by LC-MS/MS analysis; type: ADME, organism-based; conditions: in vivo
[20] = system: GISTT1; type: functional, Homo sapiens
[21] = Antitumor activity against mouse BAF3(transformed) cells harboring c-KIT Y823D mutant implanted in BALB/c nu mouse assessed as tumor growth inhibition at 80 mg/kg/day, po administered via gavage for 9 days relative to control; type: functional; conditions: 216 h, read-out: TGI
[22] = target: Platelet-derived growth factor receptor alpha (Mus musculus) (UniProt P26618); assay: Inhibition of PDGFRA in mouse BAF3(transformed) cells assessed as growth inhibition after 72 hrs by CCK8 assay
Chain of Platelet-derived growth factor receptor alpha (Mus musculus) (P26618 whole entry): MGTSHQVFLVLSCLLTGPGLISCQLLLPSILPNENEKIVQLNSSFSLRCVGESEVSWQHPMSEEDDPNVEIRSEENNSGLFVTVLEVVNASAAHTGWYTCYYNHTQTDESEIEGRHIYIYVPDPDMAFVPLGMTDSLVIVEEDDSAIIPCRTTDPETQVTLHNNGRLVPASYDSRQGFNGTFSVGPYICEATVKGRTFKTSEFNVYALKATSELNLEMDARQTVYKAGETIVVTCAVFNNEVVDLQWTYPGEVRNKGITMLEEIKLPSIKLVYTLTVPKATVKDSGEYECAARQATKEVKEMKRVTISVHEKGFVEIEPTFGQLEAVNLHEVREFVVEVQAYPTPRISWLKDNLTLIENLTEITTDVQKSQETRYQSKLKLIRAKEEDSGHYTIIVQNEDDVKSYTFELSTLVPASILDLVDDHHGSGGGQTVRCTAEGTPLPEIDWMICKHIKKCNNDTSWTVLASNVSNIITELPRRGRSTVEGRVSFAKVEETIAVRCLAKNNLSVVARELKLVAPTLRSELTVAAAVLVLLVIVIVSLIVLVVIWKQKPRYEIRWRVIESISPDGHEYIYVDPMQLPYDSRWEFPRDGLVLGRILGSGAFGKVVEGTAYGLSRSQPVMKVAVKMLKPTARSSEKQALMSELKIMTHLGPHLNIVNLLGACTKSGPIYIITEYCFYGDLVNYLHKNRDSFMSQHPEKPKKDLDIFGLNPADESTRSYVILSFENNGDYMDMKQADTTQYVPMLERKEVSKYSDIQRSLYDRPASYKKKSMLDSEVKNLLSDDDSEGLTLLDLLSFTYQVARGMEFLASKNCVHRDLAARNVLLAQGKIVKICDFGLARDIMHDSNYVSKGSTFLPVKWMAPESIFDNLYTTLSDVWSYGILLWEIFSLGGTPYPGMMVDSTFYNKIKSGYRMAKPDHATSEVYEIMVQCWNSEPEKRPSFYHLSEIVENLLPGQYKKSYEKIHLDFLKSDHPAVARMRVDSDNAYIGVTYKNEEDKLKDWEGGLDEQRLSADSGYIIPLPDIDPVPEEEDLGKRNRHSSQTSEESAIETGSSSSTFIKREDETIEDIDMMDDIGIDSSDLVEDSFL

[23] = target: T1, Mast/stem cell growth factor receptor Kit; type: cell-based, GISTT1; remark: listed apart in the source
[24] = system: Homo sapiens; type: functional; conditions: 40 mg/kg
[25] = system: GISTT1; type: functional, Homo sapiens; remark: listed apart in the source
[26] = Toxicity in BALB/c nu mouse implanted with mouse BAF3(transformed) cells harboring c-KIT Y823D mutant assessed as change in body weight at 40 to 80 mg/kg/day, po administered via gavage for 9 days measured daily during compound dosing; type: organism-based; conditions: in vivo, 216 h
[27] = system: GISTT1; type: functional, cell-based; conditions: Homo sapiens; remark: listed apart in the source
[28] = system: Mus musculus; assay: Antitumor activity against mouse BAF3(transformed) cells harboring c-KIT D820G mutant implanted in BALB/c nu mouse assessed as tumor growth inhibition administered via oral gavage for 9 days; type: functional
[29] = Oral bioavailability in mouse at 10 mg/kg by LC-MS/MS analysis; type: ADME, organism-based; conditions: in vivo
[30] = Cmax in mouse at 1 mg/kg, iv by LC-MS/MS analysis; type: ADME, organism-based; design: dose 1 mg/kg, route intravenous; conditions: in vivo
[31] = Antitumor activity against mouse BAF3(transformed) cells harboring c-KIT Y823D mutant implanted in BALB/c nu mouse assessed as tumor weight at 80 mg/kg/day, po administered via gavage for 9 days (reference value: 0.96 g); type: functional
[32] = system: GISTT1; type: functional, cell-based; conditions: Homo sapiens; remark: listed apart in the source
[33] = system: GISTT1; type: functional, Homo sapiens; conditions: Mus musculus, GISTT1, po, 672 h; read-out: TGI
[34] = Oral bioavailability in Sprague-Dawley rat at 10 mg/kg by LC-MS/MS analysis; type: ADME, organism-based; conditions: in vivo
[35] = Tmax in Sprague-Dawley rat at 1 mg/kg, iv by LC-MS/MS analysis; type: ADME, organism-based; conditions: in vivo
[36] = target: T1, Mast/stem cell growth factor receptor Kit
[37] = target: T2, Mast/stem cell growth factor receptor Kit; type: cell-based, GISTT1; remark: listed apart in the source
[38] = system: Mus musculus; type: functional, organism-based; conditions: BALB/c, 80 mg/kg
[39] = Tmax in mouse at 10 mg/kg, po by LC-MS/MS analysis; type: ADME, organism-based; conditions: in vivo
[40] = target: T2, Mast/stem cell growth factor receptor Kit; type: cell-based, GISTT1; remark: listed apart in the source
[41] = Antitumor activity against mouse BAF3(transformed) cells harboring c-KIT Y823D mutant implanted in BALB/c nu mouse assessed as tumor growth inhibition at 40 mg/kg/day, po administered via gavage for 9 days relative to control; type: functional; conditions: 216 h, read-out: TGI
[42] = system: GISTT1; type: functional, cell-based; conditions: Homo sapiens; remark: listed apart in the source
[43] = system: Mast/stem cell growth factor receptor Kit (Homo sapiens), P10721 [UNDEFINED MUTATION]; conditions: GISTT1, 0.1 uM
Chain of Mast/stem cell growth factor receptor Kit (Homo sapiens), P10721 [UNDEFINED MUTATION] (P10721 whole entry, looked up, change not shown): as the sequence (P10721 whole entry, looked up, stated change not applied) above
Description: Inhibition of c-KIT 560 to 578 deletion mutant in human GISTT1 cells assessed as reduction in ERK phosphorylation at T202 residue at 0.1 uM measured after 2 hrs by Western blot analysis

[44] = system: Mast/stem cell growth factor receptor Kit (Homo sapiens), P10721 [UNDEFINED MUTATION]; conditions: 0.1 uM
Description: Inhibition of c-KIT 560 to 578 deletion/T670I mutant in human GIST5R cells assessed as reduction in c-KIT autophosphorylation at Y719 residue at 0.1 uM measured after 2 hrs by Western blot analysis

[45] = system: Mast/stem cell growth factor receptor Kit (Homo sapiens), P10721 [UNDEFINED MUTATION]; conditions: GISTT1, 0.1 uM; remark: listed apart in the source
Description: Inhibition of c-KIT 560 to 578 deletion mutant in human GISTT1 cells assessed as reduction in c-KIT autophosphorylation at Y719 residue at 0.1 uM measured after 2 hrs by Western blot analysis

[46] = target: RAC-alpha serine/threonine-protein kinase (Homo sapiens) (UniProt P31749); conditions: 0.1 uM
Chain of RAC-alpha serine/threonine-protein kinase (Homo sapiens) (P31749 whole entry): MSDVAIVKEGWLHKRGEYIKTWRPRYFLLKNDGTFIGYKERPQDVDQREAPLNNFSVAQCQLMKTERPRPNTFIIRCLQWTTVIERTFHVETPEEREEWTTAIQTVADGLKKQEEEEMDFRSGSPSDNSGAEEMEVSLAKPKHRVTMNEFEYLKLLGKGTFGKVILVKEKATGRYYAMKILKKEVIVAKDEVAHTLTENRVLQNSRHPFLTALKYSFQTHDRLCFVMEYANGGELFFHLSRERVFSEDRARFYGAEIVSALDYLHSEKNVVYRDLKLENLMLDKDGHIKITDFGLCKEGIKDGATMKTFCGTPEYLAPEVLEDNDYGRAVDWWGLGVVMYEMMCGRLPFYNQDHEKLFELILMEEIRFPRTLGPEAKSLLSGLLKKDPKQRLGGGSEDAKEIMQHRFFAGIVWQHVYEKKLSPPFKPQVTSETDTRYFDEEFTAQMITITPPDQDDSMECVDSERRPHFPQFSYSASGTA
Description: Inhibition of AKT autophosphorylation at T308 residue in human GIST5R cells harboring c-KIT 560 to 578 deletion/T670I mutant at 0.1 uM measured after 2 hrs by Western blot analysis

[47] = system: Mast/stem cell growth factor receptor Kit (Homo sapiens), P10721 [UNDEFINED MUTATION]; conditions: 0.1 uM; remark: listed apart in the source
Description: Inhibition of c-KIT 560 to 578 deletion/T670I mutant in human GIST5R assessed as reduction in AKT phosphorylation at T308 residue at 0.1 uM measured after 2 hrs by Western blot analysis

[48] = system: Mast/stem cell growth factor receptor Kit (Homo sapiens), P10721 [UNDEFINED MUTATION]; conditions: GISTT1, 0.1 uM; remark: listed apart in the source
Description: Inhibition of c-KIT 560 to 578 deletion/T670I mutant in human GISTT1 cells assessed as reduction in pS6 phosphorylation at S235 residue at 0.1 uM measured after 2 hrs by Western blot analysis

[49] = system: Mast/stem cell growth factor receptor Kit (Homo sapiens), P10721 [UNDEFINED MUTATION]; conditions: GISTT1, 0.1 uM; remark: listed apart in the source
Description: Inhibition of c-KIT 560 to 578 deletion mutant in human GISTT1 cells assessed as reduction in c-KIT autophosphorylation at Y703 residue at 0.1 uM measured after 2 hrs by Western blot analysis

[50] = system: Mast/stem cell growth factor receptor Kit (Homo sapiens), P10721 [UNDEFINED MUTATION]; conditions: 0.1 uM; remark: listed apart in the source
Description: Inhibition of c-KIT 560 to 578 deletion/T670I mutant in human GIST5R assessed as reduction in pS6 phosphorylation at S236 residue at 0.1 uM measured after 2 hrs by Western blot analysis

[51] = system: Mast/stem cell growth factor receptor Kit (Homo sapiens), P10721 [UNDEFINED MUTATION]; conditions: GISTT1, 0.1 uM; remark: listed apart in the source
Description: Inhibition of c-KIT 560 to 578 deletion/T670I mutant in human GISTT1 cells assessed as reduction in c-KIT autophosphorylation at Y719 residue at 0.1 uM measured after 2 hrs by Western blot analysis

[52] = system: Mast/stem cell growth factor receptor Kit (Homo sapiens), P10721 [UNDEFINED MUTATION]; conditions: 0.1 uM; remark: listed apart in the source
Description: Inhibition of c-KIT 560 to 578 deletion/T670I mutant in human GIST5R cells assessed as reduction in c-KIT autophosphorylation at Y823 residue at 0.1 uM measured after 2 hrs by Western blot analysis

Compound: COc1cc2nccc(Oc3ccc(NC(=O)Cc4ccc(Cl)c(C(F)(F)F)c4)cc3)c2cc1OC
inhibition in vivo at 80 mg/kg/day [1]: 92.7%
Activity [2]: Dose-dependent effect
EC50 [3]: < 100 nM
inhibition [4]: Tde
bioavailability [5]: 81%
Cmax [6]: 1160 ng/mL
Activity [7]: < 1%
EC50 [8]: < 100 nM
Activity [9]: < 1%
TGI [10]: Dose-dependent effect
AUC(0-t) [11]: 12600 ng·h/mL
TGI ([12]; Homo sapiens, 40 mg/kg): Dose-dependent effect
inhibition in vivo at 40 mg/kg/day ([12]; Mus musculus, GISTT1, po, 672 h, read-out: TGI): 76.4%
TGI [13]: Dose-dependent effect
inhibition [14]: Tde
EC50 [15]: < 100 nM
Activity [16]: Dose-dependent effect
GI50 [17]: > 1000 nM
inhibition [18]: Active
Tmax [19]: 1.8 min
Activity [20]: 0.14 g
inhibition in vivo at 80 mg/kg/day [21]: 90.2%
GI50 [22]: 1 nM
EC50 [23]: < 100 nM
TGI [24]: Dose-dependent effect
Activity [25]: 0.27 g
Activity [26]: Non-Toxic
TGI [27]: Dose-dependent effect
TGI [28]: Dose-dependent effect
bioavailability [29]: 43%
Cmax [30]: 520 ng/mL
Activity [31]: 0.09 g
Activity [32]: Dose-dependent effect
inhibition in vivo at 40 mg/kg/day [33]: 96.9%
bioavailability [34]: 50%
Tmax [35]: 0 h
EC50 [36]: < 100 nM
EC50 [37]: < 100 nM
inhibition [38]: inactive
Tmax [39]: 4 h
EC50 [40]: < 100 nM
inhibition in vivo at 40 mg/kg/day [41]: 81.8%
Activity [42]: Dose-dependent effect

inhibition [43]: Active
inhibition [44]: Active
inhibition [45]: Active
inhibition [46]: Active
inhibition [47]: Active
inhibition [48]: Active
inhibition [49]: Active
inhibition [50]: Active
inhibition [51]: Active
inhibition [52]: Active
Compound: CCN(CC)CCNC(=O)c1c(C)[nH]c(/C=C2\C(=O)Nc3ccc(F)cc32)c1C [SUNITINIB]
